Converted amounts (≈) assume the structure as drawn. The source made the active and inactive calls. No cut-off for these calls is given here.
Assays:
[1] = Aqueous solubility of the compound; assay type: physicochemical; conditions: aqueous medium
[2] = Solubility of the compound in gastric fluid at pH 1.2; assay type: physicochemical; conditions: simulated gi fluid
Rattus norvegicus [3] = experiment: Increase in GLP1 level in overnight fasted Wistar rats at 5 and 50 mg/kg, po; assay type: functional, organism-based; design: dose 50 mg/kg
Rattus norvegicus [4] = experiment: Hypoglycemic activity in overnight fasted Wistar rats assessed as decrease in glucose AUC at 5 and 50 mg/kg, po by oral glucose tolerance test; assay type: functional, organism-based; design: dose 50 mg/kg

Compound: Cc1ncccc1Oc1ncnc(OC2CCN(C(=O)OC(C)C)CC2)c1C
- solubility [1]: > 40 mg/mL

Compound: Cc1ncccc1Oc1ncnc(OC2C3COCC2CN(C(=O)OC(C)C)C3)c1C (stereo in doubt; 8) [listing 1 of 2 here]
- solubility [2]: 8.6 mg/mL (≈ 20.1 mM)

Compound: Cc1ncccc1Oc1ncnc(OC2C3COCC2CN(C(=O)OC(C)C)C3)c1C (stereo in doubt; 8) [listing 2 of 2 here]
- Activity (Rattus norvegicus [3]): Active
- Activity (Rattus norvegicus [4]): Active

Compound: Cc1ncccc1Oc1ncnc(OC2C3COCC2CN(C(=O)OC(C)C)C3)c1C (stereo in doubt; 9)
- solubility [2]: > 66 mg/mL

Source: ChEMBL document CHEMBL1764954, “Activation of the G-protein-coupled receptor 119: a conformation-based hypothesis for understanding agonist response” (J Med Chem, 2011)
